Here are results for 7 compounds from patent US20230017045A1, “PYRIDINE AND PYRIMIDINE CARBOXYLATE HERBICIDES AND METHODS OF USE THEREOF” (Dow AgroSciences LLC, priority 2017, published 2023).

In this assay the test system is test plant species. Description: Post-emergent herbicidal activity test (greenhouse, foliar spray, visual growth reduction). The assay is classed as in vivo. Conditions: 140 g ai/ha, 14 days after application; for pest or weed control at 140 g/ha: post-emergence, 336 h. The procedure, abridged: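 Visual scoring 14 d after treatment (0 = no injury, 100 = complete control) against nontreated and solvent-blank plants gave percent growth reduction. Foliar application used a track sprayer delivering 187 L/ha to seedlings at first or second true leaf stage, grown at 23–29 °C day, ~15 h photoperiod.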

The mark [1] stands for this setting: ALOMY: blackgrass (Alopecurus myosuroides), read-out: Visual Growth Reduction (%) 14 Days After Application, ALOMY.
Setting [2] is: AMARE: redroot pigweed (Amaranthus retroflexus), read-out: Visual Growth Reduction (%) 14 Days After Application, AMARE.
[3] abbreviates: AVEFA: wild oat (Avena fatua), read-out: Visual Growth Reduction (%) 14 Days After Application, AVEFA.
Where [4] appears, read: CHEAL: lambsquarters (Chenopodium album), read-out: Visual Growth Reduction (%) 14 Days After Application, CHEAL.
[5] abbreviates: CIRAR: canada thistle (Cirsium arvense), read-out: Visual Growth Reduction (%) 14 Days After Application, CIRAR.
Where [6] appears, read: CYPES: yellow nutsedge (Cyperus esculentus), read-out: Visual Growth Reduction (%) 14 Days After Application, CYPES.
[7] abbreviates: DIGSA: crabgrass (Digitaria sanguinalis), read-out: Visual Growth Reduction (%) 14 Days After Application, DIGSA.
[8] abbreviates: ECHCG: barnyardgrass (Echinochloa crus-galli), read-out: Visual Growth Reduction (%) 14 Days After Application, ECHCG.
[9] abbreviates: IPOHE: ivy-leaf morning glory (Ipomoea hederacea), read-out: Visual Growth Reduction (%) 14 Days After Application, IPOHE.
Setting [10] is: KCHSC: kochia (Bassia scoparia), read-out: Visual Growth Reduction (%) 14 Days After Application, KCHSC.
Setting [11] is: ORYSA: rice (Oryza sativa), read-out: Visual Growth Reduction (%) 14 Days After Application, ORYSA.
Where [12] appears, read: SETFA: giant foxtail (Setaria faberi), read-out: Visual Growth Reduction (%) 14 Days After Application, SETFA.
[13] abbreviates: SORVU: grain sorghum (Sorghum vulgare), read-out: Visual Growth Reduction (%) 14 Days After Application, SORVU.
The mark [14] stands for this setting: STEME: common chickweed (Stellaria media), read-out: Visual Growth Reduction (%) 14 Days After Application, STEME.
Setting [15] is: TRZAS: wheat, spring (Triticum aestivum), read-out: Visual Growth Reduction (%) 14 Days After Application, TRZAS.

Where two headings read alike, the source gives them in different places.

For `COC(=O)c1nc(-c2ccc(Cl)c([N+](=O)[O-])c2)ccc1Cl` [F83, Methyl 3-chloro-6-(4-chloro-3-nitrophenyl) picolinate], the “Visual Growth Reduction (%) 14 Days After Application, ALOMY” value (ALOMY: blackgrass (Alopecurus myosuroides)) is recorded as “G (0-29)”. Besides, where the note is “AMARE: redroot pigweed (Amaranthus retroflexus)”, the “Visual Growth Reduction (%) 14 Days After Application, AMARE” value is listed as “G (0-29)”. Further, the “Visual Growth Reduction (%) 14 Days After Application, AVEFA” value (AVEFA: wild oat (Avena fatua)) was “G (0-29)”. Moreover, for the setting “CHEAL: lambsquarters (Chenopodium album)”, the “Visual Growth Reduction (%) 14 Days After Application, CHEAL” value is reported as “G (0-29)”. For the same compound, the “Visual Growth Reduction (%) 14 Days After Application, CIRAR” value (CIRAR: canada thistle (Cirsium arvense)) is reported as “G (0-29)”. Also, the “Visual Growth Reduction (%) 14 Days After Application, CYPES” value (CYPES: yellow nutsedge (Cyperus esculentus)) is listed as “G (0-29)”. Besides, the “Visual Growth Reduction (%) 14 Days After Application, DIGSA” value (DIGSA: crabgrass (Digitaria sanguinalis)) was “G (0-29)”. Under “ECHCG: barnyardgrass (Echinochloa crus-galli)”, the “Visual Growth Reduction (%) 14 Days After Application, ECHCG” value is “G (0-29)”. Also, the “Visual Growth Reduction (%) 14 Days After Application, IPOHE” value (IPOHE: ivy-leaf morning glory (Ipomoea hederacea)) is on record as “G (0-29)”. For the same compound, the “Visual Growth Reduction (%) 14 Days After Application, KCHSC” value (KCHSC: kochia (Bassia scoparia)) is “G (0-29)”. In addition, under “ORYSA: rice (Oryza sativa)”, the “Visual Growth Reduction (%) 14 Days After Application, ORYSA” value is “G (0-29)”. Also, the “Visual Growth Reduction (%) 14 Days After Application, SETFA” value (SETFA: giant foxtail (Setaria faberi)) is on record as “G (0-29)”. For the same compound, the “Visual Growth Reduction (%) 14 Days After Application, SORVU” value (SORVU: johnsongrass (Sorghum vulgare)) is given as “G (0-29)”. Further, the “Visual Growth Reduction (%) 14 Days After Application, STEME” value (STEME: common chickweed (Stellaria media)) is “G (0-29)”. In addition, for the setting “TRZAS: wheat, spring (Triticum aestivum)”, the “Visual Growth Reduction (%) 14 Days After Application, TRZAS” value is given as “G (0-29)”.

On to `O=C(O)c1nc(-c2ccc(C(F)(F)F)nc2)c(Cl)cc1Cl` [F84, 3,5-dichloro-6′-(trifluoromethyl)-[2,3′-bipyridine]-6-carboxylic acid], for which the pest or weed control at 140 g/ha under setting [1] lay within 0 to 29%; the pest or weed control at 140 g/ha under setting [2] lay in the range of 0 to 29%; the pest or weed control at 140 g/ha under setting [3] was in the range of 0 to 29%; the pest or weed control at 140 g/ha under setting [4] lay within 45 to 59%; the pest or weed control at 140 g/ha under setting [5] fell in the range of 0 to 29%; the pest or weed control at 140 g/ha under setting [6] was 0 to 29%. Further, the pest or weed control at 140 g/ha by setting is: under setting [7], 30 to 44%; under setting [8], 0 to 29%; under setting [9], 0 to 29%; under setting [10], 0 to 29%; under setting [11], 0 to 29%; under setting [12], 0 to 29%. The pest or weed control at 140 g/ha was 0 to 29% under setting [13], 0 to 29% under setting [14] and 0 to 29% under setting [15].

Turning to `COC(=O)c1nc(-c2ccc3c(c2F)OCO3)ccc1Cl` [F85, Methyl 3-chloro-6-(4-fluorobenzo[d][1,3]dioxol-5-yl)picolinate], the pest or weed control at 140 g/ha is 0 to 29% under setting [1]; 0 to 29% under setting [2]; 0 to 29% under setting [3]; 75 to 84% under setting [4]; 0 to 29% under setting [5]; 0 to 29% under setting [6]. Also, the pest or weed control at 140 g/ha is, setting by setting: under setting [7], 0 to 29%; under setting [8], 30 to 44%; under setting [9], 0 to 29%; under setting [10], 45 to 59%; under setting [11], 0 to 29%; under setting [12], 0 to 29%. For the same compound, the pest or weed control at 140 g/ha by setting is: under setting [13], 0 to 29%; under setting [14], 0 to 29%; under setting [15], 0 to 29%.

Regarding `COC(=O)c1nc(-c2ccc(C(F)(F)F)nc2)c(O)cc1Cl` [F87, methyl 5-chloro-3-hydroxy-6′-(trifluoromethyl)-[2,3′-bipyridine]-6-carboxylate], the pest or weed control at 140 g/ha is, setting by setting: under setting [1], 0 to 29%; under setting [2], 0 to 29%; under setting [3], 0 to 29%; under setting [4], 0 to 29%; under setting [5], 0 to 29%; under setting [6], 0 to 29%. Besides, the pest or weed control at 140 g/ha under setting [7] lay within 0 to 29%; the pest or weed control at 140 g/ha under setting [8] is 0 to 29%; the pest or weed control at 140 g/ha under setting [9] is 0 to 29%; the pest or weed control at 140 g/ha under setting [10] fell in the range of 0 to 29%; the pest or weed control at 140 g/ha under setting [11] is 0 to 29%; the pest or weed control at 140 g/ha under setting [12] was in the range of 0 to 29%. In addition, the pest or weed control at 140 g/ha runs as follows: under setting [13], 0 to 29%; under setting [14], 0 to 29%; under setting [15], 0 to 29%.

Take `COC(=O)c1nc(-c2c(Cl)cc(C(F)(F)F)cc2Cl)ccc1Cl` [F88, Methyl 3-chloro-6-(2,6-dichloro-4-(trifluoromethyl)phenyl)picolinate]: the pest or weed control at 140 g/ha is, setting by setting: under setting [1], 60 to 74%; under setting [2], 95 to 100%; under setting [3], 0 to 29%; under setting [4], 95 to 100%; under setting [5], 85 to 94%; under setting [6], 0 to 29%. Also, the pest or weed control at 140 g/ha was in the range of 85 to 94% under setting [7]; 75 to 84% under setting [8]; 75 to 84% under setting [9]; 45 to 59% under setting [10]; 0 to 29% under setting [11]; 85 to 94% under setting [12]. The pest or weed control at 140 g/ha under setting [13] was 85 to 94%, the pest or weed control at 140 g/ha under setting [14] was 0 to 29% and the pest or weed control at 140 g/ha under setting [15] lay in the range of 30 to 44%.

With `O=C(O)c1nc(-c2ccc(SC(F)(F)F)cc2)c(Cl)cc1Cl` [F89, 3,5-Dichloro-6-(4-((trifluoromethyl)thio)phenyl) picolinic acid], the pest or weed control at 140 g/ha by setting is: under setting [1], 0 to 29%; under setting [2], 0 to 29%; under setting [3], 0 to 29%; under setting [4], 45 to 59%; under setting [5], 0 to 29%; under setting [6], 0 to 29%. Besides, the pest or weed control at 140 g/ha under setting [7] lay in the range of 30 to 44%; the pest or weed control at 140 g/ha under setting [8] was in the range of 0 to 29%; the pest or weed control at 140 g/ha under setting [9] was in the range of 0 to 29%; the pest or weed control at 140 g/ha under setting [10] lay within 0 to 29%; the pest or weed control at 140 g/ha under setting [11] fell in the range of 0 to 29%; the pest or weed control at 140 g/ha under setting [12] lay in the range of 0 to 29%. Besides, the pest or weed control at 140 g/ha by setting is: under setting [13], 0 to 29%; under setting [14], 0 to 29%; under setting [15], 0 to 29%.

`COC(=O)c1nc(-c2ccc(SC(F)(F)F)cc2Cl)ccc1Cl` [F90, Methyl 3-chloro-6-(2-chloro-4-((trifluoromethyl)thio)phenyl) picolinate]: the pest or weed control at 140 g/ha under setting [1] fell in the range of 0 to 29%; the pest or weed control at 140 g/ha under setting [2] was 75 to 84%; the pest or weed control at 140 g/ha under setting [3] was in the range of 0 to 29%; the pest or weed control at 140 g/ha under setting [4] was 75 to 84%; the pest or weed control at 140 g/ha under setting [5] was 85 to 94%; the pest or weed control at 140 g/ha under setting [6] lay in the range of 0 to 29%. For the same compound, the pest or weed control at 140 g/ha was 60 to 74% under setting [7]; 0 to 29% under setting [8]; 75 to 84% under setting [9]; 30 to 44% under setting [10]; 0 to 29% under setting [11]; 45 to 59% under setting [12]. For the same compound, the pest or weed control at 140 g/ha was in the range of 60 to 74% under setting [13], 0 to 29% under setting [14] and 0 to 29% under setting [15].
